The values below come from US20080221107A1, “Therapeutic Agents” (ASTRAZENECA AB, priority 2005, published 2008).

One test concerns the target hERG (Homo sapiens, UniProt Q12809). Put plainly: hERG activity (planar-array-based voltage clamp, modified Kiss et al. method). The class given is cell-based. The protocol: hERG testing was performed using a modified version of the method described by Kiss L, Bennett P B, Uebele V N, Koblan K S, Kane S A, Neagle B, Schroeder K. “High throughput ion-channel pharmacology: planar-array-based voltage clamp.” Assay Drug Dev Technol. 1, 127-35. (2003).

The target in test [1] is T1, human Melanin concentrating hormone receptor 1 (hMCHr1) (Homo sapiens, UniProt Q99705).
T1 construct: purchased Euroscreen; host or cells: CHO-K1 cells (recombinant expression; membranes)
T1 sequence (Q99705 whole entry): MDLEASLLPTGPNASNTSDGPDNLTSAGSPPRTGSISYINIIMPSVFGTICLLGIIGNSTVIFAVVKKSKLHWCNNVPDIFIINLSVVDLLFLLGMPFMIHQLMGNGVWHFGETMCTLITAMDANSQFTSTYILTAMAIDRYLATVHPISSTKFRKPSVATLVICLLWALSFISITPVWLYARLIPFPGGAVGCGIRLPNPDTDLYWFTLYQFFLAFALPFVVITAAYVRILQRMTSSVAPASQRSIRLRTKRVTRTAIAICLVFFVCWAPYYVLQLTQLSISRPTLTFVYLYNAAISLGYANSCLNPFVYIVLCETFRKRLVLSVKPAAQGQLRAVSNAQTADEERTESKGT
The test can be described thus: MCHr1 receptor radioligand binding (125I-MCH, membranes from CHO-K1 cells). The settings on record: 125I-MCH displacement, CHO-K1 membranes expressing hMCHr1, 30° C. 60 minutes; read-out: IC50 in human MCHr binding assay. The protocol:
Assays were performed in a 96-well plate format in a final reaction volume of 200 μl per well. […] Filters were washed with assay buffer.
Non-specific binding was subtracted from all values determined. […] Binding of compounds at various concentrations was plotted according to the equation

A word on the IC50: it is the midpoint of a concentration-inhibition curve.

Structures are written as SMILES.

Sequence of hERG (Q12809 whole entry): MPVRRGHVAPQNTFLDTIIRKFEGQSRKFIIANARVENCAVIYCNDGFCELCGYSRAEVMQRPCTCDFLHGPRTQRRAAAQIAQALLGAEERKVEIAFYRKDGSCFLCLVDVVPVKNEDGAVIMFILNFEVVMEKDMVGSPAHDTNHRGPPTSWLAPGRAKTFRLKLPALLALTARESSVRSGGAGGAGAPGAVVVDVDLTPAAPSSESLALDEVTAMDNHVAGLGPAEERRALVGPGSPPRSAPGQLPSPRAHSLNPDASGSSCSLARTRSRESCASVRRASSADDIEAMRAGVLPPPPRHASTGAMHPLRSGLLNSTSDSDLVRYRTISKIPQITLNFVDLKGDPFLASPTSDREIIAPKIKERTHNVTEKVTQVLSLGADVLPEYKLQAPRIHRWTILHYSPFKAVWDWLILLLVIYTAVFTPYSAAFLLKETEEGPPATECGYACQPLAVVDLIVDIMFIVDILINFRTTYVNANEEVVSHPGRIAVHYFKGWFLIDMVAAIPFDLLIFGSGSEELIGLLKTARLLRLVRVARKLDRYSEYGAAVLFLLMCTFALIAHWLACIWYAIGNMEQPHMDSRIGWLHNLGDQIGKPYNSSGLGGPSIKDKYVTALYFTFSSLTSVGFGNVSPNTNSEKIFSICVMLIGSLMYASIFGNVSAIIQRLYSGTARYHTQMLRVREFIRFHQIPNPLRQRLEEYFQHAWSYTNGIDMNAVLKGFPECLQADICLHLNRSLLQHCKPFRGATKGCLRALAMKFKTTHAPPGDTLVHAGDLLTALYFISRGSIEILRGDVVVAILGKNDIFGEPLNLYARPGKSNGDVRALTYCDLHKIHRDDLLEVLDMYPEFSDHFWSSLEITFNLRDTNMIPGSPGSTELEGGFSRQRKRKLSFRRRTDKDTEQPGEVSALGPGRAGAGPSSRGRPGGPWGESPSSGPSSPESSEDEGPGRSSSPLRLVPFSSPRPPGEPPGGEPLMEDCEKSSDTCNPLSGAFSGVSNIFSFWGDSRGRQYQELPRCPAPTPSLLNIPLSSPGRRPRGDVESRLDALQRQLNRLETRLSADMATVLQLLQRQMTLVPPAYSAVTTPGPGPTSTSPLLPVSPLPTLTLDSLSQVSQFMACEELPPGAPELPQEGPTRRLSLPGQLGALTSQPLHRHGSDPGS

As to `COc1cc(-n2nnc3cc(-c4ccc(Cl)cc4)sc3c2=O)ccc1N1CC[C@@H](O)C1` [Example 1, 6-(4-Chlorophenyl)-3-{4-[(3R)-3-hydroxypyrrolidin-1-yl]-3-methoxyphenyl}thieno[3,2-d][1,2,3]triazin4(3D)-one], the figures for the IC50 (on hERG; in test [1]) were greater than 5000 nM and 11 nM, respectively.
